Columns and labels:
[1] = tested on: IL-3; assay: PT-18β cell proliferation assay (WST-1), IL-3 as non-γc-cytokine negative control; type: cell-based, murine; details: PT-18β cells, 1 nM cytokine, BNZ-γ as 1:20 or 1:60 dilution of HEK293T supernatant, 2 days
Text: (§1) For each of the six γc-cytokines, indicator cell lines: NK92, a human NK cell line NK92 available by American Type Culture Collection (ATCC) (catalog #CRL-2407), CTLL-2, a murine CD8 T cells line available from ATCC, and PT-18, a murine mast cell line and its subclone PT-18β, is transfected with human IL-2Rβ gene to make the cells responsive to IL-2 and IL-15 (Tagaya et al., 1996, EMBO J. 15:4928-39), and is used to quantitatively determine the γc-cytokine's growth-promoting activity (See Current protocols in Immunology from Wiley and Sons for a methodological reference).
(§2) Once the appropriate doses of the cytokine that yield the 50% and 95% maximum response from the indicator cell line is determined, various concentrations (ranging from 1 pM to 10 μM) of the purified or synthesized custom derivative peptide is added to each well containing the cytokine and indicator cells. The reduction in light absorbance at 450 nm is used as an indicator of inhibition of cytokine-stimulated cellular proliferation. Typically, the cells are stimulated by the cytokines such that the absorbance of the well containing indicator cell line and the cytokine is between 2.0 and 3.0, which is reduced to a range of 0.1 to 0.5 by the addition of inhibitory peptides. […]
(§3) The growth-responses of the cells were determined 2 days after the introduction of BNZ-γ peptide and the cytokine using the WST-1 assay. […]

[2] = tested on: IL-9; assay: PT-18β cell proliferation assay (WST-1), IL-9; type: cell-based, murine; details: PT-18β cells, 1 nM cytokine, BNZ-γ as 1:20 or 1:60 dilution of HEK293T supernatant, 2 days
Text: as §1, §2, §3

[3] = tested on: IL-15; assay: PT-18β cell proliferation assay (WST-1), IL-15; type: cell-based, murine; details: PT-18β cells, 1 nM cytokine, BNZ-γ as 1:20 or 1:60 dilution of HEK293T supernatant, 2 days
Text: as §1, §2, §3

[4] = tested on: IL-4; assay: PT-18β cell proliferation assay (WST-1), IL-4; type: cell-based, murine; details: PT-18β cells, 1 nM cytokine, BNZ-γ as 1:20 or 1:60 dilution of HEK293T supernatant, 2 days
Text: as §1, §2, §3

[5] = tested on: STAT5; assay: IL-15-stimulated tyrosine phosphorylation of STAT5 in PT-18β cells (anti-phospho-STAT5 immunoblot); type: cell-based, murine; details: PT-18β cells stimulated by IL-15, presence vs absence of BNZ-γ peptide
Text: In addition to stimulating cellular proliferation, binding of the γc-cytokines to their receptors causes a diverse array of intracellular events. (Rochman et al. 2009 Nat. Rev. Immunol. 9:480-90, Pesu et al. 2005 Immunol. Rev. 203:127-142.) Immediately after the cytokine binds to its receptor, a tyrosine kinase called Jak3 (Janus-kinase 3) is recruited to the receptor at the plasma membrane. This kinase phosphorylates the tyrosine residues of multiple proteins including the γc-subunit, STAT5 (Signal Transducer and Activator of Transcription 5) and subunits of the PI3 (Phosphatidylinositol 3) kinase. Among these, the phosphorylation of STAT5 has been implicated in many studies as being linked to the proliferation of cells initiated by the γc-cytokine. (Reviewed in Hennighausen and Robinson, 2008 Genes Dev. 22:711-21.) In accordance with these published data, whether or not the BNZ-γ peptide inhibits the tyrosine phosphorylation of STAT5 molecule in PT-18β cells stimulated by IL-15 was examined (results shown in FIG. 4).
PT-18β cells were stimulated by IL-15 in the presence or absence of BNZ-γ peptide. Cytoplasmic proteins were extracted from the cells according to a conventional method as described in Tagaya et al. 1996 EMBO J. 15:4928-39. […]

[6] = tested on: humanized NSG mice; assay: Immunohistochemistry of humanized NSG mouse skin tissue for human CD8 T cells; type: in vivo; details: 7-weeks post-transplant with vs without BNZ-γ treatment
Procedure: In order to characterize the nature of immune attack in the skin tissue and around the hair follicles, immunohistochemistry studies were conducted of the skin tissue of humanized NSG mice 3-weeks (pre-BNZ-γ) and 7-weeks (with or without BNZ-γ treatment) after transplantation of 2 million huPBMCs. The tissue was fixed for 24 hours in 4% formalin (Sigma) and then moved to 70% ethanol for at least 24 hours before being processed. Tissue was then embedded in paraffin following dehydration for two washes of two hours each in 70%, 90%, and 100% ethanol, then cleared in xylene twice for two hours each, and infiltrated with melted paraplast plus at 60 C two times for two hours. Paraffin embedded tissues were stored at room temperature prior to sectioning and staining. An anti-human CD8 antibody (BioCare Medical CRM 311C) or isotype control was used for staining of the tissues based on the standard procedure for IHC.

[7] = tested on: humanized NSG mice
Procedure: In this experiment, NSG mice were transplanted with 2 million huPBMCs on study day 0, with therapeutic treatment beginning 35-days post-transplant. Mice were treated twice weekly with IV injections of PBS control (n=5), BNZ-γ at 2 mg/kg (n=5), anti-IL-2 antibody at 5 mg/kg (n=3), anti-IL-15 antibody at 5 mg/kg (n=3), or combination anti-IL-2 and anti-IL-15 antibody each at 5 mg/kg (n=3) starting on day 35 for a treatment duration of 4 weeks.
Levels of IL-6 and IFNγ were also measured in this experiment. […] Cytokine levels were determined using sera collected on day 50, except for one animal in the anti-IL-2 antibody treatment group (collected on day 45), one mouse in the PBS control untreated group (collected on day 45), and two mice from the PBS control untreated group (collected on day 40) to ensure a blood sample was collected before each became fatally ill.

[8] = sera collected on day 50 (some earlier), vs PBS control

In the case of “I-K-E-F-L-Q-R-F-I-H-I-V-Q-S-I-I-N-T-S (IKEFLQRFIHIVQSIINTS) [BNZ-γ]”, the “growth-promoting activity of IL-3” value [1] is reported as “not inhibited”, the “growth-promoting activity of IL-9” value [2] is reported as “significantly (p<0.01 Student's T test) reduced” and the “growth-promoting activity of IL-15” value [3] is reported as “significantly (p<0.01 Student's T test) reduced”. For the same substance, the “cellular proliferation stimulated by IL-4” value [4] was “not affected”, the “tyrosine phosphorylation of STAT5” value [5] was “markedly reduced” and the “number of infiltrated human CD8 T cells in skin tissue” value [6] was “significant reduction in the number of infiltrated CD8 cells”. The “survival of the BNZ-γ group relative to combination antibody treatment” value ([7]; BNZ-γ 2 mg/kg IV twice weekly, 4 weeks from day 35, the words are printed of the combination, BNZ-γ being the more effective (p=0.001)) was “less effective than BNZ-γ”, the regrowth of hair ([7]; approximately two weeks after treatment was completed (~day 63), 4-week treatment from day 35) was “greatest degree of hair regrowth of all 4 treatment groups” and the “level of IFNγ in sera” value [7, 8] was “most effective”. The “level of IL-6 in sera” value [7, 8] was “most effective”.

— patent US12030936B2, “Modulating the effects of gamma-c-cytokine signaling for the treatment of alopecia and alopecia associated disorders” (BIONIZ THERAPEUTICS, LLC, priority 2019, dated 2024)
